One test has as its system diabetic (ob/ob) mice. Nature of the test: blood glucose lowering activity in diabetic (ob/ob) mice. It counts as in vivo, mouse (ob/ob, C57 B1/6J). The settings on record: positive control, 100 mg/kg/day. An excerpt: The procedures used and results obtained are briefly described below.
The no -insulin dependent diabetic (NIDDM) syndrome can be typically characterizes by obesity, hyperglycemia, abnormal insulin secretion, hyperinsulinemia and insulin resistance.
In each test procedure, mice [Male or female ob/ob (C57 B1/6J) and their lean litermates (ob/+ or +/+, Jackson Laboratories) ages 2 to 5 months (10 to 65 g)] of a similar age were randomized according to body weight into 4 groups of 10 mice. The mice were housed 5 per cage and are maintained on normal rodent chow with water ad libitum. Mice received test compound daily by gavage (suspended in 0.5 ml of 0.5% methyl cellulose); dissolved in the drinking water; or admixed in the diet. The dose of compounds given ranges from 2.5 to 200 mg/kg body weight/day. The dose is calculated based on the fed weekly body weight and is expressed as active moiety. […] Control mice received vehicle only.
On the morning of Day 4, 7 or 14 two drops of blood (approximetly 50 ul) were collected into sodium fluoride containing tubes either from the tail vein or after decapitation. […] The plasma was isolated by centrifugation and the concentration of glucose is measured enzymatically on an Abbott V.P. Analyzer.
For each mouse, the percentage change in plasma glucose on Day 4, 7 or 14 is calculated relative to the mean plasma glucose of the vehicle treated mice. […]

For another test, the target named is T1, hPTP1B (Homo sapiens, UniProt P18031).
T1 construct: made in house
T1 sequence (P18031 1-435): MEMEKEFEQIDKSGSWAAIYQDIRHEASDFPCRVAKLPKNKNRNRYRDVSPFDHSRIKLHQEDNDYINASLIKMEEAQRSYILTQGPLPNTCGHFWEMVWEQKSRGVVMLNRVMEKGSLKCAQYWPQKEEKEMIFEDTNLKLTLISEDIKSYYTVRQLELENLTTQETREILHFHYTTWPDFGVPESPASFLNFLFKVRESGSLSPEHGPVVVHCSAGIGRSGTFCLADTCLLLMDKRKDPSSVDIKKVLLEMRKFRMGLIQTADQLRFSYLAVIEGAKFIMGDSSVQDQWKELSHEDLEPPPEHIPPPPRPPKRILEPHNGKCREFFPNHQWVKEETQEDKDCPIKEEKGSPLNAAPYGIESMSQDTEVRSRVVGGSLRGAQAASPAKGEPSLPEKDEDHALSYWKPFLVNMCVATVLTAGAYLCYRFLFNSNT
Kind of test: Inhibition of Tri-Phosphorylated Insulin Receptor Dodecaphosphopeptide Dephosphorylation by hPTP1B. In kind it is biochemical.

With `CC1(COc2ccc(CC3SC(=O)NC3=O)cc2)CCCCC1` (centres unmarked) [Ciglitazone, 5-(4-(1-methylcyclohexylmethoxy)benzyl)-2,4-dione], in the test with diabetic (ob/ob) mice, the “plasma glucose lowering (in words)” value is listed as “significant lowering in plasma glucose”.

For `Cc1oc(-c2ccc(C(F)(F)F)cc2)nc1-c1ccc(-c2ccc(OS(=O)(=O)c3ccc(C(=O)O)c(O)c3)cc2)cc1` [Example 14], the 50% inhibitory concentration (IC50) against hPTP1B was 0.193 µM.

(Values after US6310081A, “Biphenyl sulfonyl aryl carboxylic acids useful in the treatment of insulin resistance and hyperglycemia” (American Home Products Corporation, priority 2001, dated 2001).)
